Columns and labels:
VERPE [1] = experiment: Herbicidal post-emergence action - Part II; type: in vivo, Veronica persica
In short: (§1)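 Post-emergence greenhouse test: weeds and crops in sandy loam sprayed at single-leaf stage, 2–3 weeks after sowing, with WP or EC formulations in water plus 0.5% additive at 600 l water/ha. Rates 320 g/ha or below. Visual rating after ca. 3 weeks versus untreated controls, % effect (100% = plants dead).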

LOLRI = experiment: Herbicidal pre-emergence action - Part I; type: in vivo, Lolium rigidum; conditions: visual grading after ca. 3 weeks vs untreated controls
Text: Seeds of mono- and dicotyledonous weed plants were sown in plastic pots (double sowings with one species of mono- and one species of dicotyledonous weed plants per pot), in sandy loam, and covered with soil. The compounds according to the invention, formulated in the form of wettable powders (WP) or as emulsifiable concentrates (EC), were applied to the surface of the covering soil as aqueous suspension or emulsion, with the addition of 0.5% of an additive, at an application rate of 600 1 of water per hectare (converted). Following treatment, the pots were placed in a greenhouse and kept under optimum growth conditions for the test plants. The visual grading of the damage to the test plants was carried out after ca. 3 weeks in comparison to untreated controls (herbicidaleffectinpercent(%):100%effect=plantshavediedoff,0%effect=ascontrolplants). [formula]
Tables A1 to A12, below, show the effects of selected compounds of the general formula (I) according to table 1 on various harmful plants and an application rate corresponding to 1280 g/ha or below obtained by the experimental procedure mentioned above. Table A1: pre-emergence activity at 1280g/ha against ABUTH in %

ECHCG [2] = experiment: Herbicidal post-emergence action - Part I; type: in vivo, Echinochloa crus-galli; conditions: one-leaf stage, rated visually after about 3 weeks vs untreated controls
In short: (§2)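 Greenhouse weeds grown in sandy loam were sprayed post-emergence at the one-leaf stage, 2-3 weeks after sowing. Compounds were applied as WP or EC in water with 0.5% additive at 600 L/ha, at 1280 g/ha or below. Visual damage was rated after about 3 weeks versus untreated plants (0-100%).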

ABUTH [3] = experiment: Herbicidal post-emergence action - Part I; type: in vivo, Abutilon theophrasti; conditions: 1280 g/ha, one-leaf stage, rated visually after about 3 weeks vs untreated controls
In short: as §2

ECHCG [4] = experiment: Herbicidal post-emergence action - Part II; type: in vivo, Echinochloa crus-galli; conditions: 320 g/ha; Table E3b
Text: Seeds of mono- and dicotyledonous weed plants and crop plants were sown, in plastic or organic planting pots, in sandy loam, covered with soil and grown in a greenhouse under controlled growth conditions. 2 to 3 weeks after sowing, the test plants were sprayed in the single-leaf stage. The compounds according to the invention, formulated in form of wettable powders (WP) or as emulsifiable concentrates (EC), were sprayed onto the green plant parts as aqueous suspension or emulsion, with the addition of 0.5% of an additive, at an application rate of 600 1 of water/ha (converted). The test plants were placed in the greenhouse for ca. 3 weeks under optimum growth conditions, and then the effect of the preparations was assessed visually in comparison with untreated controls (herbicidal effect in percent (%): 100% effect = plants have died off, 0% effect = as control plants). Tables E1 to E10 below show the effects of selected compounds of the general formula (I) according to table 1 on various harmful plants and an application rate corresponding to 320 g/ha or below obtained by the experimental procedure mentioned above. Table E1a: post-emergence activity at 5g/ha against ABUTH in %

ABUTH [5] = experiment: Herbicidal post-emergence action - Part II; type: in vivo, Abutilon theophrasti; conditions: 320 g/ha; Table E1c
In short: as §1

VERPE [6] = experiment: Herbicidal pre-emergence action - Part II; type: in vivo, Veronica persica
Text: (§3) Seeds of mono- and dicotyledonous weed plants and crop plants were sown, in plastic or organic planting pots, in sandy loam and covered with soil. The compounds according to the invention, formulated in the form of wettable powders (WP) or as emulsifiable concentrates (EC), were applied to the surface of the covering soil as aqueous suspension or emulsion, with the addition of 0.5% of an additive, at an application rate of 600 1 of water/ha (converted). Following treatment, the pots were placed in a greenhouse and kept under optimum growth conditions for the test plants. The visual grading of the damage to the test plants was carried out after ca. 3 weeks in comparison to untreated controls (herbicidal effect in percent (%): 100% effect = plants have died off, 0% effect = as control plants). Tables C1 to C12 below show the effects of selected compounds of the general formula (I) according to table 1 on various harmful plants and an application rate corresponding to 320 g/ha or below obtained by the experimental procedure mentioned above. Table C1: pre-emergence activity at 320g/ha against ABUTH in %

VIOTR [7] = experiment: Herbicidal pre-emergence action - Part II; type: in vivo, Viola tricolor
Text: as §3

SETVI [8] = experiment: Herbicidal post-emergence action - Part I; type: in vivo, Setaria viridis; conditions: one-leaf stage, rated visually after about 3 weeks vs untreated controls
Method: (§4) Seeds of mono- and dicotyledonous weed plants were placed in plastic pots in sandy loam soil (doubly sown with in each case one species of mono- or dicotyledonous weed plants per pot), covered with soil and cultivated in a greenhouse under controlled growth conditions. 2 to 3 weeks after sowing, the test plants were treated at the one-leaf stage. The compounds of the invention, formulated in the form of wettable powders (WP) or as emulsion concentrates (EC), were applied onto the green parts of the plants as aqueous suspension or emulsion with addition of 0.5% additive at a water application rate of 600 liters per hectare (converted). After the test plants had been kept in the greenhouse under optimum growth conditions for about 3 weeks, the activity of the preparations was rated visually in comparison to untreated controls. For example, 100% activity = the plants have died, 0% activity = like control plants. Tables B1 to B12, below, show the effects of selected compounds of the general formula (I) according to table 1 on various harmful plants and an application rate corresponding to 1280 g/ha or below obtained by the experimental procedure mentioned above. Table B1a: post-emergence activity at 1280g/ha against ABUTH in %

ALOMY = experiment: Herbicidal post-emergence action - Part I; type: in vivo, Alopecurus myosuroides; conditions: one-leaf stage, rated visually after about 3 weeks vs untreated controls
Method: as §4

DIGSA [9] = experiment: Herbicidal pre-emergence action - Part I; type: in vivo, Digitaria sanguinalis; conditions: visual grading after ca. 3 weeks vs untreated controls
In short: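 In this greenhouse pre-emergence test, formulated compounds with 0.5% additive were applied at 1280 g/ha or below onto the soil covering sown weed seeds in sandy loam. After roughly three weeks, plant damage was scored by eye in percent versus untreated controls.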

SETVI [10] = experiment: Herbicidal post-emergence action - Part II; type: in vivo, Setaria viridis; conditions: 320 g/ha; Table E7c
In short: as §1

POLCO = experiment: Herbicidal pre-emergence action - Part II; type: in vivo, Polygonum convolvulus; conditions: 320 g/ha; Table C9
Text: as §3

DIGSA [11] = experiment: Herbicidal post-emergence action - Part I; type: in vivo, Digitaria sanguinalis; conditions: one-leaf stage, rated visually after about 3 weeks vs untreated controls
Method: as §4

VIOTR [12] = experiment: Herbicidal post-emergence action - Part II; type: in vivo, Viola tricolor; conditions: 320 g/ha; Table E9c
In short: as §1

Cc1ccsc1C1=NOC2(CCCN(Cc3c(F)cccc3F)C2=O)C1 (racemic) [Compound I-2]
80%: post-emergence activity against ABUTH (ABUTH [5]) | pre-emergence activity against POLCO (POLCO) | post-emergence activity against VIOTR (VIOTR [12])
100%: pre-emergence activity at 320g/ha against LOLRI in % (LOLRI; 320 g/ha) | pre-emergence activity at 1280g/ha against LOLRI in % (LOLRI; 1280 g/ha) | pre-emergence activity at 320g/ha against DIGSA in % (DIGSA [9]; 320 g/ha) | pre-emergence activity at 1280g/ha against DIGSA in % (DIGSA [9]; 1280 g/ha)
90%: post-emergence activity against VERPE (VERPE [1]; 80 g/ha, Table E8c) | post-emergence activity against VERPE (VERPE [1]; 320 g/ha, Table E8d) | post-emergence activity at 320g/ha against ECHCG in % (ECHCG [2]; 320 g/ha) | post-emergence activity at 1280g/ha against ECHCG in % (ECHCG [2]; 1280 g/ha) | post-emergence activity at 1280g/ha against ABUTH in % (ABUTH [3]) | post-emergence activity against ECHCG (ECHCG [4]) | pre-emergence activity against VERPE (VERPE [6]; 80 g/ha, Table C11b) | pre-emergence activity against VERPE (VERPE [6]; 320 g/ha, Table C11a) | pre-emergence activity against VIOTR (VIOTR [7]; 80 g/ha, Table C12b) | pre-emergence activity against VIOTR (VIOTR [7]; 320 g/ha, Table C12a) | post-emergence activity at 80g/ha against SETVI in % (SETVI [8]; 80 g/ha) | post-emergence activity at 320g/ha against SETVI in % (SETVI [8]; 320 g/ha) | post-emergence activity at 1280g/ha against SETVI in % (SETVI [8]; 1280 g/ha) | post-emergence activity at 1280g/ha against ALOMY in % (ALOMY) | post-emergence activity against SETVI (SETVI [10]) | post-emergence activity at 320g/ha against DIGSA in % (DIGSA [11]; 320 g/ha) | post-emergence activity at 1280g/ha against DIGSA in % (DIGSA [11]; 1280 g/ha)
